According to patent publication US20090197811A1, “ORALLY ADMINISTERED PEPTIDES TO IMPROVE OR PREVENT HEPATIC FIBROSIS” (University of Southern California, priority 2007, published 2009):
Where “and” joins values, the source holds several entries; their conditions need not be identical. Equal entries are not always repeated. Entries after “also recorded” stand apart in the source; their conditions may differ. Non-standard residues stand in square brackets, D forms with d.

Legend:
[1] = test system: murine hepatic stellate cells (HSC); assay: Culture-induced activation of primary hepatic stellate cells (ASMA and oil red O staining); format: cell-based, mouse
Protocol: Murine hepatic stellate cells (HSC) were isolated by collagenase/pronase digestion and Stractan density gradient centrifugation^16. α-Smooth muscle actin (ASMA) staining: HSC were cultured on glass coverslips and fixed with 10% formaldehyde (EM Science, Gibbstown, N.J.) for 20 minutes at room temperature. Cells were incubated with a mouse monoclonal anti-ASMA (1:250 or 1:50, as indicated), followed by a rabbit anti-mouse IgG TRITC conjugate (1:50, Santa Cruz Scientific, Santa Cruz, Calif.). Slides were examined using a Nikon PCM-2000 confocal microscope with a Nikon Eclipse TE300 microscope with a plan Apo 60×/1.4 aperture oil immersion objective, 543-nm laser, and Simple PCI software from the C-Imaging series from Nikon/Compix Inc (Cranberry Township Pa.). Values were obtained by counting the number of ASMA positive cells in 15 randomly selected fields in triplicate. […]
To examine the mechanism of action of D-4F, murine hepatic stellate cells (HSC) were cultured on plastic for 7 days in the absence or presence of 10 μg/ml D-4F. Without D-4F, 87±2% of cells expressed α-smooth muscle actin (ASMA) after 7 days as assessed by confocal microscopy. In contrast, in the presence of D-4F 0% of HSC expressed ASMA after 7 days (see FIG. 7).

C57Bl/6J mice = assay: Western diet model: liver histology, assessment of steatosis and inflammation; format: in vivo, mouse; details: for Fatty Change Degree of fat / Fatty Change Type (predominant type) / Inflammatory Clusters: individual mice
Protocol: Studies were performed in male C5713L/6J mice (Jackson Laboratories, Bar Harbor Me.). Six groups were studied (n=3-5, see FIG. 1) with 4 mice per group at the outset, except for group 2, which was started with n=5; 1 mouse died in group 1. Groups 1, 2, and 3 received the Western diet for 9.5 months; during the last 2.5 months of the 9.5 months, group 2 received SR141716 10 mg/kg/day i.g., and group 3 received D-4F, 125 μg/mouse/day, in the drinking water. Groups 4, 5, and 6 received the Western diet for 7 months followed by standard chow for 2.5 months; during the 2.5 months on standard chow, group 5 received SR141716 and group 6 received D-4F as described for groups 2 and 3, respectively. Additional control groups were studied: 6-month old C57Bl/6J mice as age-matched controls (n=5) and C57Bl/6J mice that received the Western diet for 6 months (n=6).
The slides were coded, without the pathologist knowing the specific treatment group that the slides represented. The histology was graded according to a number of histologic features. The degree of fat was graded as to the approximate percentage of hepatocytes containing fat: 0, absent; +/−, less than 5%; 1+, 5-25%; 2+. 26-50%; 3+, 51-75%; 4+, >75%. The fat was also assessed as to whether it was totally macrovesicular, predominantly macrovesicular, totally microvesicular, predominantly microvesicular, or mixed macro- and microvesicular. In addition, the zone was assessed as to whether the fat was perivenular, periportal, diffuse, or focal. Inflammation was graded as absent, scanty (1 to 3 foci/slide), present (scattered, with 4 to 10 foci/slide), present + (scattered, >10 foci/slide but not numerous), and present ++ (numerous). The type of inflammation was graded as totally mononuclear, predominantly mononuclear, totally neutrophilic, predominantly neutrophilic, and mixed mononuclear-neutrophilic. The hydropic change of hepatocytes was graded as absent, mild, and moderate/severe, with the location noted as perivenular, focal or diffuse.

[2] = group 3 vs group 1, Western diet 9.5 months, D-4F last 2.5 months
[3] = 7 months Western diet followed by 2.5 months Western diet + drug
[4] = 7 months Western diet followed by 2.5 months chow + drug

Ac-D-W-F-K-A-F-Y-D-K-V-A-E-K-F-K-E-A-F-NH2 (Ac-[dD][dW][dF][dK][dA][dF][dY][dD][dK][dV][dA][dE][dK][dF][dK][dE][dA][dF]-NH2; not fully specified; printed as Ac-D-W-F-K-A-F-Y-D-K-V-A-E-K-F-K-E-A-F-NH2) [D-4F]
cytoplasmic fat (lipid) droplets, oil red O staining ([1]; HSC cultured 7 days in the presence of D-4F vs without): maintain significantly more lipid droplets; also recorded: maintained cytoplasmic fat droplets | hepatic stellate cell activation in vitro ([1]; summary statement): prevented hepatic stellate cell activation | inflammation, histologically (C57Bl/6J mice; [2]): some evidence of a reduction | steatosis, histologically (C57Bl/6J mice; [2]): no effect | inflammation, histologically (C57Bl/6J mice; group 6 (switch to chow plus D-4F) vs group 4 (switch to chow)): perhaps a small decrease | Fatty Change Degree of fat (C57Bl/6J mice; [3]): 4 | Fatty Change Type (predominant type) (C57Bl/6J mice; [3]): Macrovesicular | Inflammatory Clusters (C57Bl/6J mice; [3]): 3 (3×) and 2 | Fatty Change Degree of fat (C57Bl/6J mice; [4]): 2 (2×) and 0 and 3 | Fatty Change Type (predominant type) (C57Bl/6J mice; [4]): Mixed | Inflammatory Clusters (C57Bl/6J mice; [4]): 1 and 2 (3×) | steatohepatitis (summary) (C57Bl/6J mice; summary statement): did not alter steatohepatitis
